Laboratory results as given in patent US20230067644A1, “DRG-MDM2-3 FOR USE AS A NOVEL MOUSE DOUBLE MINUTE 2 (MDM2) INHIBITOR” (BAHCESEHIR UNIVERSITESI, priority 2020, published 2023).
Where two headings read alike, the source gives them in different places.

Assays:
HCT-116 cells [1] = assay: MTT cell proliferation assay; type: cell-based; settings: Homo sapiens, HCT-116, 100 μM, read-out: cell viability decreased
Procedure: (§1) HCT 116 colon cancer and MDA-MB231 breast cancer cell lines are used in cell culture experiments.
For proliferation inhibition analysis, cells were seeded in 24 well plates at 1×10^4 cells/well cells overnight without drug treatment. During the cell proliferation experiments, we performed five days of treatment in each cell line and repeated the experiments three times to check each experiment. No significant difference in cell viability was observed after the third day. Therefore, cells with different drug concentrations were treated for two days. After 48 hours, MTT was applied to the cells and incubated at 37° C. for 4 hours, formazan was solubilized with DMSO (Sigma-Aldrich, St. Louis, USA) and absorbance was measured at 570 nm.
Molecule concentration was 100 μM, the lower concentrations were not shown. Vehicle represents the groups treated with only %0,5 DMSO and Untreated represents no molecule treated group. Molecule responses were evaluated by cell viability which is obtained by spectrophotometric analysis of cells upon MTT treatment at 12 h, 24 h, 48 h and 72 h. […] Statistical significance in graphs was determined by comparing each treatment group with DMSO control using ANOVA testing and significance is considered as p<0.001 (FIG. 2).
As a result, cell viability decreased by 40% at the end of the first day and reached 60% at the end of the third day. […]

HCT-116 cells [2] = assay: Microscopic evaluation of cells (proliferation, apoptotic morphology); type: cell-based
Procedure: Cells were photographed and observed under microscope for three days.
As a result, cell viability decreased by 40% at the end of the first day and reached 60% at the end of the third day. Any cell proliferation change and apoptotic cell morphology were not observed in the untreated and vehicle groups. Moreover, differences in cell morphology were also observed. […] Upon treatment with the compound of formula I according to present invention with 100 μM concentration, cells having the morphology of apoptotic cells were observed starting from the 3rd hour.

MDA-MB231 cell lines = assay: MTT cell viability assay (IC50); type: cell-based; settings: Homo sapiens, MDA-MB-231, single dose of treatment, 10^-9 to 10^-4 M, absorbance 570 nm
Procedure: as §1
Cells were treated with high-glucose DMEM medium (Biosera) supplemented with 10% FBS (Gibco) and 1× penicillin/streptomycin (Multicell). The assay was designed to contain 10,000 cells for each well of 24-well cell culture plates before being treated with inhibitors.
Compound of formula I was dissolved with DMSO as 20 mM stock. 24 hours later, the solution was diluted in DMEM with 10% FBS and final concentration of vehicle DMSO was 0.5% at maximum. Therefore, the vehicle group included 0.5% DMSO concentration in experiments. Intensive cultivation of cells causes a decrease in proliferation capacity.
The MTT cell viability assay was used to detect values of half-maximal inhibitory concentration (IC50). Different concentrations of compound of formula I ranging between 10^−9 to 10^−4 M were tested on MDA-MB231 cell lines with single dose of treatment. 570 nm absorbance values were recorded and IC50 values were calculated by dose response—inhibition curves and nonlinear regression analysis on Graphpad Prism 8 software.

MDM2 protein = MDM2 protein (Homo sapiens, UniProt Q00987); settings: background statement; cited from earlier work
Sequence of MDM2 protein (Q00987 whole entry, species assumed): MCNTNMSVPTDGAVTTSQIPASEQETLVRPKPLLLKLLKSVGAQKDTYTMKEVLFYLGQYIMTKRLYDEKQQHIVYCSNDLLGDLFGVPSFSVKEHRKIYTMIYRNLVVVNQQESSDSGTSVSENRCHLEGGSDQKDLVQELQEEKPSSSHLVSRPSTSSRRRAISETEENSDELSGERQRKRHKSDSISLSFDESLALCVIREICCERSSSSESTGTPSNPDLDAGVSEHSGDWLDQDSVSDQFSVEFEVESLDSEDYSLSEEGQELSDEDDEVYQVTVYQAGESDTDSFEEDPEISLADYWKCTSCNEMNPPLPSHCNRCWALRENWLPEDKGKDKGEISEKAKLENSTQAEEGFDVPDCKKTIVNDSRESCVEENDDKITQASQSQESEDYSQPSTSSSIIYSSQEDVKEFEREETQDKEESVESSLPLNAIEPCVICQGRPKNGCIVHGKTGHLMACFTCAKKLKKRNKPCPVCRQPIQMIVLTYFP

Row | Molecule | cytotoxicity at 100 µM (HCT-116 cells [1]; at the end of the first day) [%] | cytotoxicity at 100 µM (HCT-116 cells [1]; at the end of the third day) [%] | hour from which cells having the morphology of apoptotic cells were observed (HCT-116 cells [2]; 100 μM concentration) [hour] | apoptotic activity (onset, microscopy) (HCT-116 cells [2]; FIG. 3) | proliferation and cell structures under microscope (HCT-116 cells [2]; observed for three days, vs vehicle and untreated, FIG. 3) | IC50 (MDA-MB231 cell lines) [µM] | binding affinity to MDM2 protein relative to a natural p53 peptide (MDM2 protein) [fold]
1 | O=C(CCc1ccccc1Cl)NC(CC1CNc2ccccc21)C(=O)O (stereo not shown) [compound of formula I] | 40 | 60 | 3 | clear apoptotic activity from the twelfth hour | reduced proliferation and showed apoptotic cell structures | 41 | 
2 | MI-319 |  |  |  |  |  |  | 500
